Assay results as given in ChEMBL document CHEMBL1201862, “PubChem BioAssay data set” (2004).
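All cell lines were grown in 96-well plates and treated with compound for 48 hours. At the GI50, growth is halved.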 Activity calls are given as the source filed them. Cut-off read from the data, not from the text of the source: active = GI50 up to about 1.1 µM and inactive = higher.

How the values were obtained:
Assay in all cases: NCI-60 cell line screen, 48 h
HCT-15 = test system: HCT-15
SK-MEL-5 = test system: SK-MEL-5
EKVX = test system: EKVX
NCI-H23 = test system: NCI-H23
SR = test system: SR
K562 = test system: K562
RXF 393 = test system: RXF 393
A498 = test system: A498
MOLT-4 = test system: MOLT-4
HOP-92 = test system: HOP-92
HT-29 = test system: HT-29
BT-549 = test system: BT-549
SF-268 = test system: SF-268
MCF7 = test system: MCF7
HOP-62 = test system: HOP-62
COLO 205 = test system: COLO 205
PC-3 = test system: PC-3
HCC 2998 = test system: HCC 2998
CCRF-CEM = test system: CCRF-CEM

| Structure (SMILES) | GI50 (HCT-15) [µM] | GI50 (SK-MEL-5) | GI50 (EKVX) | GI50 (NCI-H23) | GI50 (SR) | GI50 (K562) | GI50 (RXF 393) | GI50 (A498) | GI50 (MOLT-4) | GI50 (HOP-92) | GI50 (HT-29) | GI50 (BT-549) | GI50 (SF-268) | GI50 (MCF7) | GI50 (HOP-62) | GI50 (COLO 205) | GI50 (PC-3) | GI50 (HCC 2998) | GI50 (CCRF-CEM) |
| --- | --- | --- | --- | --- | --- | --- | --- | --- | --- | --- | --- | --- | --- | --- | --- | --- | --- | --- | --- |
| Cc1cc2cc3c(O)nc(O)nc3nc2cc1C | > 100 | > 100 µM (inactive) | > 100 µM (inactive) | > 100 µM (inactive) | > 100 µM (inactive) | > 100 µM (inactive) | 52.2 µM (inactive) | > 100 µM (inactive) | > 100 µM (inactive) | > 100 µM (inactive) | > 100 µM (inactive) | > 100 µM (inactive) | > 100 µM (inactive) | > 100 µM (inactive) | > 100 µM (inactive) | > 100 µM (inactive) | > 100 µM (inactive) | – | – |
| O=C1c2ccccc2C(=O)c2c1ccc(C(=O)O)c2-c1ccc2ccccc2c1 | 19.6 | 16.9 µM (inactive) | 20.6 µM (inactive) | 18.6 µM (inactive) | 16.6 µM (inactive) | 25.9 µM (inactive) | – | 29 µM (inactive) | 19.1 µM (inactive) | – | 32.5 µM (inactive) | 26.4 µM (inactive) | 28 µM (inactive) | 3.42 µM (inactive) | 32.2 µM (inactive) | 10.4 µM (inactive) | 24.5 µM (inactive) | 25.9 µM (inactive) | 23.3 µM (inactive) |
| O=c1c(O)c(-c2cc(O)c(O)cc2O)oc2cc(O)c(C3OC(CO)C(O)C(O)C3O)c(O)c12 (centres undefined) | > 100 | – | > 100 µM (inactive) | – | > 100 µM (inactive) | > 100 µM (inactive) | – | > 100 µM (inactive) | > 100 µM (inactive) | > 100 µM (inactive) | > 100 µM (inactive) | > 100 µM (inactive) | > 100 µM (inactive) | > 100 µM (inactive) | > 100 µM (inactive) | – | > 100 µM (inactive) | – | – |
| Cc1ccc(C)n1-c1ccccc1C1C=CN(C(=O)OC(C)(C)C)C=C1 | 20.6 | 33.4 µM (inactive) | 16.4 µM (inactive) | 27.5 µM (inactive) | – | 32.3 µM (inactive) | 19.6 µM (inactive) | 50.5 µM (inactive) | 21.7 µM (inactive) | 37.6 µM (inactive) | 12.1 µM (inactive) | 32.7 µM (inactive) | 33.6 µM (inactive) | 17.4 µM (inactive) | 31.4 µM (inactive) | 17.2 µM (inactive) | 25.9 µM (inactive) | 17.3 µM (inactive) | 35.3 µM (inactive) |
| COc1ccc(/C=N/NC(=O)O)cc1 | > 100 | > 100 µM (inactive) | > 100 µM (inactive) | > 100 µM (inactive) | > 100 µM (inactive) | > 100 µM (inactive) | > 100 µM (inactive) | > 100 µM (inactive) | > 100 µM (inactive) | – | > 100 µM (inactive) | > 100 µM (inactive) | – | > 100 µM (inactive) | > 100 µM (inactive) | > 100 µM (inactive) | > 100 µM (inactive) | 88.5 µM (inactive) | – |
| O=C(O)c1ccccc1/C=N\N=C1NCCCCN1 | > 100 | > 100 µM (inactive) | > 100 µM (inactive) | > 100 µM (inactive) | > 100 µM (inactive) | > 100 µM (inactive) | – | > 100 µM (inactive) | > 100 µM (inactive) | – | > 100 µM (inactive) | > 100 µM (inactive) | > 100 µM (inactive) | > 100 µM (inactive) | > 100 µM (inactive) | > 100 µM (inactive) | > 100 µM (inactive) | > 100 µM (inactive) | > 100 µM (inactive) |
| C[N+]1([O-])[C@H]2CC(OC(=O)[C@H](CO)c3ccccc3)C[C@H]1[C@H]1O[C@H]12 (some centres undefined) | > 100 | > 100 µM (inactive) | > 100 µM (inactive) | > 100 µM (inactive) | > 100 µM (inactive) | > 100 µM (inactive) | > 100 µM (inactive) | > 100 µM (inactive) | > 100 µM (inactive) | – | > 100 µM (inactive) | > 100 µM (inactive) | – | > 100 µM (inactive) | > 100 µM (inactive) | > 100 µM (inactive) | > 100 µM (inactive) | – | 21.2 µM (inactive) |
| CC12CC(=O)C3C(C(=O)C1)C32C (centres undefined) | > 100 | > 100 µM (inactive) | > 100 µM (inactive) | > 100 µM (inactive) | > 100 µM (inactive) | > 100 µM (inactive) | > 100 µM (inactive) | > 100 µM (inactive) | > 100 µM (inactive) | – | > 100 µM (inactive) | > 100 µM (inactive) | > 100 µM (inactive) | > 100 µM (inactive) | > 100 µM (inactive) | > 100 µM (inactive) | > 100 µM (inactive) | > 100 µM (inactive) | > 100 µM (inactive) |
| CC1CC(=O)Nc2ccccc2N1C(=O)C1CC1 (centres undefined) | > 100 | > 100 µM (inactive) | > 100 µM (inactive) | > 100 µM (inactive) | – | > 100 µM (inactive) | > 100 µM (inactive) | > 100 µM (inactive) | > 100 µM (inactive) | 19.5 µM (inactive) | > 100 µM (inactive) | > 100 µM (inactive) | > 100 µM (inactive) | > 100 µM (inactive) | > 100 µM (inactive) | > 100 µM (inactive) | > 100 µM (inactive) | > 100 µM (inactive) | > 100 µM (inactive) |
| CCCCP(CCCC)(CCCC)=C(C(=O)OC)C(C(=O)OC)=C1SC(C(=O)OC)=C(C(=O)OC)S1 | 30.5 | 16.2 µM (inactive) | 27.2 µM (inactive) | 17.5 µM (inactive) | 34.8 µM (inactive) | – | 10.3 µM (inactive) | – | 11.9 µM (inactive) | – | 14.5 µM (inactive) | 15.7 µM (inactive) | 30.6 µM (inactive) | 16.8 µM (inactive) | 20.4 µM (inactive) | 17 µM (inactive) | 11.1 µM (inactive) | – | – |
| O=[N+]([O-])c1c(O)c2nonc2c2nn(-c3ccccc3)nc12 | > 100 | > 100 µM (inactive) | > 100 µM (inactive) | > 100 µM (inactive) | > 100 µM (inactive) | > 100 µM (inactive) | – | – | > 100 µM (inactive) | > 100 µM (inactive) | > 100 µM (inactive) | > 100 µM (inactive) | > 100 µM (inactive) | 20.5 µM (inactive) | > 100 µM (inactive) | > 100 µM (inactive) | > 100 µM (inactive) | > 100 µM (inactive) | > 100 µM (inactive) |
| O=C(O)C(/C=C/c1ccccc1)c1ccccc1 (centres undefined) | > 100 | > 100 µM (inactive) | > 100 µM (inactive) | > 100 µM (inactive) | 5.11 µM (inactive) | 84.3 µM (inactive) | > 100 µM (inactive) | > 100 µM (inactive) | 6.59 µM (inactive) | > 100 µM (inactive) | > 100 µM (inactive) | > 100 µM (inactive) | > 100 µM (inactive) | > 100 µM (inactive) | > 100 µM (inactive) | > 100 µM (inactive) | > 100 µM (inactive) | – | 14.3 µM (inactive) |
